These results are taken from ChEMBL document CHEMBL1125120, “Synthesis and anticonvulsant and sedative-hypnotic activity of 4-(alkylimino)-2,3-dihydro-4H-1-benzopyrans and -benzothiopyrans” (J Med Chem, 1990).

For data set [1], the system named is Mus musculus. Put plainly: Ability to inhibit seizures induced by electroshock in mice administered per orally. It is filed as functional. Conditions: po.
In data set [2] the test system is Mus musculus. Put plainly: Ability to inhibit seizures induced by mercaptopropionic acid in mice administered per orally. Conditions: po. It is filed as functional.
Data set [3] concerns Mus musculus. Put plainly: Ability to inhibit seizures induced by pentylenetetrazole in mice administered per orally. It is filed as functional. The following applies: po.
For data set [4], the system named is Mus musculus. As to the kind of experiment: Ability to inhibit seizures induced by electroshock in mice administered per orally; i = inactive. It is filed as functional, organism-based.
A short description of data set [5]: (§1) Acute toxicity administered per orally. It is filed as organism-based. Conditions: mouse, in vivo, po.
The test system of data set [6] is Rattus norvegicus. As to the kind of experiment: Ability to potentiate pentobarbital-induced sleep administered per orally. It is filed as functional. Conditions: po.
Data set [7] has as its system Mus musculus. As to the kind of experiment: Ability to inhibit seizures induced by mercaptopropionic acid in mice administered per orally; i = inactive. It is filed as functional, organism-based.
The subject of data set [8] is Mus musculus. The description is as §1. It is filed as functional. The following applies: po.
Data set [9] concerns Rattus norvegicus. As to the kind of experiment: Ability to potentiate pentobarbital-induced sleep administered per orally; i = inactive. It is filed as functional, organism-based.

The source made the active and inactive calls. The calls are words filed in the database; no cut-off is given here.

A word on the ED50: it is the dose that gives a 50% effect, or the effect in half of the subjects. Turning to `CN1C(=O)CN=C(c2ccccc2)c2cc(Cl)ccc21` [DIAZEPAM], the figures for the ED50 with Mus musculus [1], in the data set with Mus musculus [2] and in the data set on Mus musculus [3] were 1.2 mg/kg, 0.7 mg/kg and 0.5 mg/kg, respectively.
Usually LD50 stands for the dose expected to kill half of the subjects tested. The low end stands for a more toxic substance, the high end for a less toxic substance. For the molecule `CCCCCc1cc(O)c2c(c1)SC(C)(C)C/C2=N\CC(C)O` (stereo not given), the ED50 result with Mus musculus [4] is “inactive”. Also, the ED50 in the data set on Mus musculus [3] was found to be 14.3 mg/kg; with Rattus norvegicus [6], 10 mg/kg. The molecule further registered an LD50 in data set [5] of over 800 mg/kg.
Consider `CCCCCc1cc(O)c2c(c1)SC(C)(C)C/C2=N\CCO`, for which the ED50 entry in the data set with Mus musculus [4], with Mus musculus [7] and in the data set with Rattus norvegicus [9] was “inactive” in each case. Also, it took a dose of 24 mg/kg to reach the 50% effect level with Mus musculus [3] (ED50). In the data set with Mus musculus [8], this molecule showed an LD50 of over 800 mg/kg.
As for `CCCCCc1cc(O)c2c(c1)SC(C)(C)C[C@H]2NCC(C)O` (stereo not given in full), the ED50 in the data set with Mus musculus [1] came to 20.6 mg/kg; in the data set with Mus musculus [2], 8.8 mg/kg; in the data set with Mus musculus [3] it was 4.8 mg/kg; in the data set with Rattus norvegicus [6], 9.7 mg/kg. The LD50 in data set [5] is over 1600 mg/kg.
Take `CCCCc1cc(O)c2c(c1)OC(C)(C)C[C@H]2NCC(C)O` (stereo not given in full): the ED50 result in the data set with Mus musculus [4] and with Mus musculus [7] was “inactive” in each case. The ED50 in the data set on Mus musculus [3] stood at 15.5 mg/kg; in the data set on Rattus norvegicus [6] it was 14.2 mg/kg. In data set [5], this molecule had an LD50 of 800 mg/kg.
Regarding `CCCC(CCC)C(=O)[O-].[Na+]` [VALPROATE SODIUM], the ED50 with Mus musculus [1] is 206 mg/kg; with Mus musculus [2], 200 mg/kg; in the data set on Mus musculus [3] it was 200 mg/kg.
Consider `CCCCCc1cc(O)c2c(c1)OC(C)(C)C/C2=N\C[C@@H](C)O`, for which the 50% effective dose (ED50) in the data set on Mus musculus [1] was found to be 13.8 mg/kg; in the data set on Mus musculus [2], 9.4 mg/kg; with Mus musculus [3] it was 14 mg/kg. Moreover, in data set [5], the LD50 turned out to be 800 mg/kg. Further, the ED50 result in the data set with Rattus norvegicus [9] is “inactive”.
Consider `CCCCCc1cc(O)c2c(c1)OC(C)(C)C/C2=N\CCO`, for which the ED50 result in the data set with Mus musculus [4], with Mus musculus [7] and with Rattus norvegicus [9] was “inactive” in each case. This molecule also came in with an ED50 in the data set with Mus musculus [3] of 19 mg/kg. For the same molecule, in [5], the LD50 was over 800 mg/kg.
Take `CCCCCc1cc(O)c2c(c1)OC(C)(C)C/C2=N\CC(C)O` (stereo not given): the ED50 result in the data set on Mus musculus [4], in the data set with Mus musculus [7] and in the data set on Rattus norvegicus [9] was “inactive” in each case. For the same molecule, in the data set with Mus musculus [3], the ED50 was 24.3 mg/kg. The molecule also registered an LD50 in data set [5] of 800 mg/kg.
